The target in the assay is T1, CCDC6-RET fusion (Homo sapiens, UniProt P07949+Q16204+Q96SW2).
T1 construct: CCDC6 (N-terminal fusion partner from the natural gene rearrangement, Q16204); endogenous in cells; host or cells: TPC-1 (parental) papillary thyroid carcinoma cells
In words: Cellular RET degradation assay (AlphaLISA Surefire Ultra, TPC-1 cells). In kind it is cell-based. The note with it: half-maximal degradation concentration (DC50); parental TPC-1/CCDC6-RET cell line; 24 hrs compound treatment; AlphaLISA luminescence; read-out: Cell Density TPC-1/CCDC6-RET IC50. Here is the method: Cellular RET degradation compound potency was determined using the bead-based luminescent amplification assay—AlphaLISA Surefire Ultra Detection Kit (Perkin-Elmer). The CCDC6-RET fusion expressing papillary thyroid carcinoma (TPC-1) cell line was selected for screening of potential degraders: Parental (TPC-1/CCDC6-RET). Cells were plated in 384 well culture plates (Greiner Bio-One) at 10,000 cells/well in 50 ul/well DMEM (Fisher Scientific) with 2% FBS serum (Gibco). […] Low normalization wells were media only and high normalization wells were cells treated with DMSO only. Treated cell plates were placed in an incubator at 37C and 5% CO2 for 24 hrs. At 24 hrs, cell media was removed by a FELIX automated liquid hander (Analytik Jena) and 25 ul of cell lysis buffer (provided in AlphaLisa kit) was added to each well. 5 ul cell lysate were transferred into a 384-well microplate (Perkin Elmer) before addition of 2.5 ul AlphaLISA Acceptor Bead mix. The plates were sealed and kept at room temperature for 1 hr before addition of donor bead mixture. Donor bead addition was performed in the dark and incubated for >1 hr before AlphaLISA luminescence was measured on an Envision plate reader with an Alphascreen aperture at RT (excitation 680 nm, emission 615 nm). RET protein abundance (and therefore degradation) directly corresponds to luminescence intensity.
Intensities were normalized relative to the average values from 16 wells containing media alone (blank-low) and 16 wells containing cells+DMSO (high). % Degradation for each well was determined using the standard equation, where
DC50 (IC50) values for each compound tested are calculated by analyzing plots of % degradation versus compound concentration, and fitting to the standard 4-parameter logistic curve where,
Top and bottom are the % degradation at infinitely large and infinitely small compound concentrations, respectively, while Halfmax is the compound concentration yielding % degradation corresponding to ½ Top-Bottom, and N is the Hill coefficient. DC50 values are calculated according to the relationship,
Compound replicates were performed in independent assays. Maximum degradation (YMax) was defined as the maximal % degradation value from the 4-parameter logistic equation, as previously described.
(In general: Bead proximity is the source of the signal in Alpha formats.)

T1 sequence (Q16204+P07949 fused): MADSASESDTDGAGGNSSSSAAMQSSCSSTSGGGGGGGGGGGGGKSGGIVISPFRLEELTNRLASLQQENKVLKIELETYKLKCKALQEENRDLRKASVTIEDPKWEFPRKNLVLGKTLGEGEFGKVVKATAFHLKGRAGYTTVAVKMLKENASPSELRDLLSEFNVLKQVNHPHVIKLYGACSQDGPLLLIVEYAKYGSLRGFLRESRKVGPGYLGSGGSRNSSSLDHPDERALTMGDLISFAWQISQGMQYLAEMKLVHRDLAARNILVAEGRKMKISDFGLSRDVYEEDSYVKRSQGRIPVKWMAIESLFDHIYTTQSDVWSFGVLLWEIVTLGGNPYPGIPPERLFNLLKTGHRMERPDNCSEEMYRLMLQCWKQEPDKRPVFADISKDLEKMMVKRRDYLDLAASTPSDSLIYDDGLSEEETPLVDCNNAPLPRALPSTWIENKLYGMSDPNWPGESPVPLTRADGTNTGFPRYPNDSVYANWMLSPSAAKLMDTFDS
T1 sequence (Q96SW2 whole entry, the tested form may be a part): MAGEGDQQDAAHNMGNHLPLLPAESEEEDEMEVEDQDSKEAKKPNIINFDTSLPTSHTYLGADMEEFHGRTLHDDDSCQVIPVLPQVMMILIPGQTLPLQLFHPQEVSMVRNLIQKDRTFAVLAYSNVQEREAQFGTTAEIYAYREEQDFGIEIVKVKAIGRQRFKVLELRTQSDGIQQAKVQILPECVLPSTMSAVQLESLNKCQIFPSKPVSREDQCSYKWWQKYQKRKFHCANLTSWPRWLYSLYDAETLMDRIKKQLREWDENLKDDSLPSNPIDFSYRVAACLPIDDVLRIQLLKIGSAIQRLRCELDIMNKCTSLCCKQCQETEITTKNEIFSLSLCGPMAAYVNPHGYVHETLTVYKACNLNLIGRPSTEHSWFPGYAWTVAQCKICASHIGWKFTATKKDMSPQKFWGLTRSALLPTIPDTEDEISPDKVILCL

Take `Nc1ncnc2c1c(-c1noc(C3CC3)c1-c1ccccn1)nn2[C@H]1C[C@H](C(=O)NCCCCN2CCN(c3ccc4c(c3)CN(C3CCC(=O)NC3=O)C4=O)CC2)C1` (stereo partly drawn) [Example A2, (1r,3r)-3-{4-amino-3-[5-cyclopropyl-4-(pyridin-2-yl)-1,2-oxazol-3-yl]-1H-pyrazolo[3,4-d]pyrimidin-1-yl}-N-(4-{4-[2-(2,6-dioxopiperidin-3-yl)-1-oxo-2,3-dihydro-1H-isoindol-5-yl]piperazin-1-yl}butyl)cyclobutane-1-carboxamide]: the DC50 worked out at 3.17 nM.

As to `Nc1ncnc2c1c(-c1noc(C3CC3)c1-c1ccccn1)nn2[C@H]1C[C@H](C(=O)NCCCCCCN2CCC(c3ccc4c(c3)CN(C3CCC(=O)NC3=O)C4=O)CC2)C1` (stereo partly drawn) [Example A5, (1r,3r)-3-{4-amino-3-[5-cyclopropyl-4-(pyridin-2-yl)-1,2-oxazol-3-yl]-1H-pyrazolo[3,4-d]pyrimidin-1-yl}-N-(6-{4-[2-(2,6-dioxopiperidin-3-yl)-1-oxo-2,3-dihydro-1H-isoindol-5-yl]piperidin-1-yl}hexyl)cyclobutane-1-carboxamide], the DC50 was 9.27 nM.

As to `CC(C)n1nc(-c2noc(C3CC3)c2-c2cn(C3CCN(C(=O)CCCCCCN4CCN(c5ccc6c(c5)CN(C5CCC(=O)NC5=O)C6=O)CC4)CC3)cn2)c2c(N)ncnc21` (stereo not drawn) [Example A12, 3-[5-(4-{7-[4-(4-{3-[4-amino-1-(propan-2-yl)-1H-pyrazolo[3,4-d]pyrimidin-3-yl]-5-cyclopropyl-1,2-oxazol-4-yl}-1H-imidazol-1-yl)piperidin-1-yl]-7-oxoheptyl}piperazin-1-yl)-1-oxo-2,3-dihydro-1H-isoindol-2-yl]piperidine-2,6-dione], the DC50 worked out at 1.77 nM.

With `Nc1ncnc2c1c(-c1noc(C3CC3)c1-c1ccccn1)nn2[C@H]1C[C@H](C(=O)NCCCCN2CCC(c3ccc4c(c3)C(=O)N(C3CCC(=O)NC3=O)C4)CC2)C1` (stereo partly drawn) [Example A8, (1r,3r)-3-{4-amino-3-[5-cyclopropyl-4-(pyridin-2-yl)-1,2-oxazol-3-yl]-1H-pyrazolo[3,4-d]pyrimidin-1-yl}-N-(4-{4-[2-(2,6-dioxopiperidin-3-yl)-3-oxo-2,3-dihydro-1H-isoindol-5-yl]piperidin-1-yl}butyl)cyclobutane-1-carboxamide], the DC50 was 17.4 nM.

For the compound `CC(C)n1nc(-c2noc(C3CC3)c2-c2cn(C3CCN(C(=O)CCCCN4CCC(c5ccc6c(c5)C(=O)N(C5CCC(=O)NC5=O)C6)CC4)CC3)cn2)c2c(N)ncnc21` (stereo not drawn) [Example A17, 3-[6-(1-{5-[4-(4-{3-[4-amino-1-(propan-2-yl)-1H-pyrazolo[3,4-d]pyrimidin-3-yl]-5-cyclopropyl-1,2-oxazol-4-yl}-1H-imidazol-1-yl)piperidin-1-yl]-5-oxopentyl}piperidin-4-yl)-1-oxo-2,3-dihydro-1H-isoindol-2-yl]piperidine-2,6-dione], the DC50 turned out to be 43.2 nM.

As for `CC(C)n1nc(-c2noc(C3CC3)c2C2CCN(C(=O)CCCCCCN3CCN(c4ccc5c(c4)C(=O)N(C4CCC(=O)NC4=O)C5)CC3)CC2)c2c(N)ncnc21` (stereo not drawn) [Example A19, 3-(6-{4-[7-(4-{3-[4-amino-1-(propan-2-yl)-1H-pyrazolo[3,4-d]pyrimidin-3-yl]-5-cyclopropyl-1,2-oxazol-4-yl}piperidin-1-yl)-7-oxoheptyl]piperazin-1-yl}-1-oxo-2,3-dihydro-1H-isoindol-2-yl)piperidine-2,6-dione], the DC50 was 27.8 nM.

For `Nc1ncnc2c1c(-c1noc(C3CC3)c1-c1ccccn1)nn2[C@H]1C[C@H](C(=O)NCCCCN2CCC(c3ccc4c(c3)CN(C3CCC(=O)NC3=O)C4=O)CC2)C1` (stereo partly drawn) [Example A4, (1r,3r)-3-{4-amino-3-[5-cyclopropyl-4-(pyridin-2-yl)-1,2-oxazol-3-yl]-1H-pyrazolo[3,4-d]pyrimidin-1-yl}-N-(4-{4-[2-(2,6-dioxopiperidin-3-yl)-1-oxo-2,3-dihydro-1H-isoindol-5-yl]piperidin-1-yl}butyl) cyclobutane-1-carboxamide], the DC50 came out at 6.51 nM.

`Nc1ncnc2c1c(-c1noc(C3CC3)c1-c1ccccn1)nn2[C@H]1C[C@H](C(=O)NCCCCNc2ccc(C3CCC(=O)NC3=O)cc2)C1` (stereo partly drawn) [Example A11, (1r,3r)-3-{4-amino-3-[5-cyclopropyl-4-(pyridin-2-yl)-1,2-oxazol-3-yl]-1H-pyrazolo[3,4-d]pyrimidin-1-yl}-N-(4-{[4-(2,6-dioxopiperidin-3-yl)phenyl]amino}butyl) cyclobutane-1-carboxamide]: the DC50 was determined as 57.6 nM.

Turning to `COC1(C(=O)N[C@@H](CCCNC(=O)CCCCCCN2CCN(c3ccc4c(c3)CN(C3CCC(=O)NC3=O)C4=O)CC2)c2ccc(-n3cc(F)cn3)nc2)CCN(c2nc(C)cc(Nc3cc(C)[nH]n3)n2)CC1` (stereo partly drawn) [Example A34, 7-{4-[2-(2,6-dioxopiperidin-3-yl)-1-oxo-2,3-dihydro-1H-isoindol-5-yl]piperazin-1-yl}-N-[(4S)-4-[6-(4-fluoro-1H-pyrazol-1-yl)pyridin-3-yl]-4-[(4-methoxy-1-{4-methyl-6-[(5-methyl-1H-pyrazol-3-yl)amino]pyrimidin-2-yl}piperidin-4-yl)formamido]butyl] heptanamide], the DC50 came out at 13.2 nM.

Take `Nc1ncnc2c1c(-c1noc(C3CC3)c1-c1ccccn1)nn2[C@H]1C[C@H](C(=O)NCCCCN2CCN(c3ccc4c(c3)C(=O)N(C3CCC(=O)NC3=O)C4)CC2)C1` (stereo partly drawn) [Example A6, (1r,3r)-3-{4-amino-3-[5-cyclopropyl-4-(pyridin-2-yl)-1,2-oxazol-3-yl]-1H-pyrazolo[3,4-d]pyrimidin-1-yl}-N-(4-{4-[2-(2,6-dioxopiperidin-3-yl)-3-oxo-2,3-dihydro-1H-isoindol-5-yl]piperazin-1-yl}butyl) cyclobutane-1-carboxamide]: the DC50 stood at 6.42 nM.

As to `Nc1ncnc2c1c(-c1noc(C3CC3)c1-c1ccccn1)nn2[C@H]1C[C@H](C(=O)NCCCCCCN2CCC(c3ccc4c(c3)C(=O)N(C3CCC(=O)NC3=O)C4)CC2)C1` (stereo partly drawn) [Example A9, (1r,3r)-3-{4-amino-3-[5-cyclopropyl-4-(pyridin-2-yl)-1,2-oxazol-3-yl]-1H-pyrazolo[3,4-d]pyrimidin-1-yl}-N-(6-{4-[2-(2,6-dioxopiperidin-3-yl)-3-oxo-2,3-dihydro-1H-isoindol-5-yl]piperidin-1-yl}hexyl)cyclobutane-1-carboxamide], the DC50 amounted to 22 nM.

As to `COC1(C(=O)N[C@@H](CCCNC(=O)CCCCCCCCNc2cccc(C3CCC(=O)NC3=O)c2)c2ccc(-n3cc(F)cn3)nc2)CCN(c2nc(C)cc(Nc3cc(C)[nH]n3)n2)CC1` (stereo partly drawn) [Example A29], the DC50 stood at 4.88 nM.

For the compound `CC(C)n1nc(-c2noc(C3CC3)c2-c2cn(C3CCN(C(=O)CCCCCCN4CCC(c5ccc6c(c5)CN(C5CCC(=O)NC5=O)C6=O)CC4)CC3)cn2)c2c(N)ncnc21` (stereo not drawn) [Example A14, 3-[5-(1-{7-[4-(4-{3-[4-amino-1-(propan-2-yl)-1H-pyrazolo[3,4-d]pyrimidin-3-yl]-5-cyclopropyl-1,2-oxazol-4-yl}-1H-imidazol-1-yl)piperidin-1-yl]-7-oxoheptyl}piperidin-4-yl)-1-oxo-2,3-dihydro-1H-isoindol-2-yl]piperidine-2,6-dionc], the DC50 was 2.02 nM.

As to `Nc1ncnc2c1c(-c1noc(C3CC3)c1-c1ccccn1)nn2[C@H]1C[C@H](C(=O)NCCCCCCN2CCN(c3ccc4c(c3)C(=O)N(C3CCC(=O)NC3=O)C4)CC2)C1` (stereo partly drawn) [Example A7, (1r,3r)-3-{4-amino-3-[5-cyclopropyl-4-(pyridin-2-yl)-1,2-oxazol-3-yl]-1H-pyrazolo[3,4-d]pyrimidin-1-yl}-N-(6-{4-[2-(2,6-dioxopiperidin-3-yl)-3-oxo-2,3-dihydro-1H-isoindol-5-yl]piperazin-1-yl}hexyl) cyclobutane-1-carboxamide], the DC50 is 5.32 nM.

On to `Nc1ncnc2c1c(-c1noc(C3CC3)c1-c1ccccn1)nn2[C@H]1C[C@H](C(=O)NCCN2CCC(c3ccc4c(c3)CN(C3CCC(=O)NC3=O)C4=O)CC2)C1` (stereo partly drawn) [Example A3, (1r,3r)-3-{4-amino-3-[5-cyclopropyl-4-(pyridin-2-yl)-1,2-oxazol-3-yl]-1H-pyrazolo[3,4-d]pyrimidin-1-yl}-N-(2-{4-[2-(2,6-dioxopiperidin-3-yl)-1-oxo-2,3-dihydro-1H-isoindol-5-yl]piperidin-1-yl}ethyl)cyclobutane-1-carboxamide], for which the DC50 turned out to be 10.2 nM.
